Test [1] deals with T1, Dihydropteroate synthase (Bacillus anthracis) (UniProt Q81VW8).
T1 sequence (whole entry): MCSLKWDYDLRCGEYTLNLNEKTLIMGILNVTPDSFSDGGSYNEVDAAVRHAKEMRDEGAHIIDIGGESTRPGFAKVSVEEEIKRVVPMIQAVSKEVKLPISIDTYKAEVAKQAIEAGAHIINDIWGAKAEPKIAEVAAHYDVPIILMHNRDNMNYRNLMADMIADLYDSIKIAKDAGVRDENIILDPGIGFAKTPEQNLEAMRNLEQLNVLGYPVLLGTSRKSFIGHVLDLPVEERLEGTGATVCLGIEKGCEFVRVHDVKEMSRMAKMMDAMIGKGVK
Put plainly: Inhibition of Bacillus anthracis DHPS at 200 uM.

Test [2] concerns the target T1, Dihydropteroate synthase (Bacillus anthracis). Kind of test: Inhibition of Bacillus anthracis DHPS at 200 uM after 10 mins.

The structures appear in SMILES notation.

The term inhibition denotes the relative decrease from the control value, in per cent. Low readings indicate little suppression, high ones strong suppression.

In the case of `Nc1nc2ncc(N(CCP(=O)(O)O)Cc3ccc(C(=O)O)cc3)cc2c(=O)[nH]1`, the inhibition in test [1] amounted to 16.3%; in test [2], 30.5%.
For `Nc1nc2c(c(=O)[nH]1)CC(N(CCP(=O)(O)O)Cc1ccc(C(=O)O)cc1)CN2` (stereo not drawn) the same measures were 3.6% and 5.7%.
For `Nc1nc2c(c(=O)[nH]1)C[C@@H](N(CCCP(=O)(O)O)Cc1ccc(C(=O)O)cc1)CN2` the same measures were 3.9% and 6.3%.
`Nc1nc2ncc(N(CCCP(=O)(O)O)Cc3ccc(C(=O)O)cc3)cc2c(=O)[nH]1`: the inhibition worked out at 32.9% in test [1] and 44.3% in test [2].
